Experimental data as given in paper PMC4234427 (Journal of Medicinal Chemistry, 2014).

Experiments:
h-CB2R = h-CB2R (Homo sapiens, UniProt P34972); details: classification from β-arrestin 2 (and cAMP) assays
hCB2R [1] = biological target: T1, hCB2R (Homo sapiens, UniProt P34972); experiment: forskolin-stimulated cAMP assay; type: cell-based; details: for cAMP (CB2R) EC50/IC50 (nM): EC50: agonist mode, inhibition of forskolin (10 μM) mediated cAMP production
hCB2R [2] = biological target: T1, hCB2R; experiment: CB2R competitive radioligand binding assay; details: selectivity ratio
[3] = solubility under the cAMP assay test conditions; type: physicochemical; details: functional cAMP assay conditions

T1 sequence (P34972 whole entry): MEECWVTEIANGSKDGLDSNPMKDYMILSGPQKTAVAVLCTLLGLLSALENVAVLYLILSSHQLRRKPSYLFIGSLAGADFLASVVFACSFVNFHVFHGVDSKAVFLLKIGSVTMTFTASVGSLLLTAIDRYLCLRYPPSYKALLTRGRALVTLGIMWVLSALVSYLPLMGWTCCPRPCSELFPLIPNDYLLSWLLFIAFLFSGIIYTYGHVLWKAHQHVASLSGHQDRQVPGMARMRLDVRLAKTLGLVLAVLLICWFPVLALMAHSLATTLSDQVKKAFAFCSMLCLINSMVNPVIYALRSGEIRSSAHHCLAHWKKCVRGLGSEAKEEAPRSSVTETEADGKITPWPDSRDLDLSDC
h-CB2R, sequence (P34972 whole entry): as above

CC1CCC(NC(=O)c2cc3cccnc3n(CCN3CCOCC3)c2=O)CC1 (centres unmarked) [A1]
functional activity at CB2R (h-CB2R): agonists
cAMP (CB2R) EC50/IC50 (nM): EC50 (hCB2R [1]): 28.0 nM

CC1CCC(NC(=O)c2cc3cccnc3n(CCCO)c2=O)CC1 (centres unmarked) [Compound 4, 1-(3-Hydroxypropyl)-N-(4-methylcyclohexyl)-2-oxo-1,2-dihydro-1,8-naphthyridine-3-carboxamide]
Ki(CB1)/Ki(CB2) (hCB2R [2]): >77

CC1CCC(NC(=O)c2cc3cccnc3n(CCC(=O)O)c2=O)CC1 (centres unmarked) [Compound 11, 3-(3-(4-Methylcyclohexylcarbamoyl)-2-oxo-1,8-naphthyridin-1(2H)-yl)propanoic Acid]
Ki(CB1)/Ki(CB2) (hCB2R [2]): >7

CC1CCC(NC(=O)c2cc3cccnc3n(Cc3ccc(F)cc3)c2=O)CC1 (centres unmarked) [A2]
functional activity at CB2R (h-CB2R): agonists
cAMP (CB2R) EC50/IC50 (nM): EC50 (hCB2R [1]): 29.6 nM

CC1CCC(NC(=O)c2cc3cccnc3n(CCO)c2=O)CC1 (centres unmarked) [Compound 3, 1-(2-Hydroxyethyl)-N-(4-methylcyclohexyl)-2-oxo-1,2-dihydro-1,8-naphthyridine-3-carboxamide]
Ki(CB1)/Ki(CB2) (hCB2R [2]): >5

CC1CCC(NC(=O)c2cc3cccnc3n(CCCCCO)c2=O)CC1 (centres unmarked) [Compound 6, 1-(5-Hydroxypentyl)-N-(4-methylcyclohexyl)-2-oxo-1,2-dihydro-1,8-naphthyridine-3-carboxamide]
Ki(CB1)/Ki(CB2) (hCB2R [2]): >2778

CC1CCC(NC(=O)c2cc3cccnc3n(CCCCC(=O)O)c2=O)CC1 (centres unmarked) [Compound 13, 5-(3-(4-Methylcyclohexylcarbamoyl)-2-oxo-1,8-naphthyridin-1(2H)-yl)pentanoic Acid]
Ki(CB1)/Ki(CB2) (hCB2R [2]): >7

CCOC(=O)CCn1c(=O)c(C(=O)NC2CCC(C)CC2)cc2cccnc21 (centres unmarked) [Compound 8, Ethyl 3-(3-(4-Methylcyclohexylcarbamoyl)-2-oxo-1,8-naphthyridin-1(2H)-yl)propanoate]
Ki(CB1)/Ki(CB2) (hCB2R [2]): >57

CC1CCC(NC(=O)c2cc3cc(Br)cnc3n(Cc3ccc(F)cc3)c2=O)CC1 (centres unmarked) [Compound 17, 6-Bromo-1-(4-fluorobenzyl)-N-(4-methylcyclohexyl)-2-oxo-1,2-dihydro-1,8-naphthyridine-3-carboxamide]
functional activity at CB2R (h-CB2R): inverse agonists as well as antagonists
solubility under the test conditions [3]: insoluble

C[C@H]1CC[C@@H](NC(=O)c2cc3cc(-c4ccco4)cnc3n(Cc3ccc(F)cc3)c2=O)CC1 [Compound 22-cis, cis-1-(4-Fluorobenzyl)-6-(furan-2-yl)-N-(4-methylcyclohexyl)-2-oxo-1,2-dihydro-1,8-naphthyridine-3-carboxamide]
Ki(CB1)/Ki(CB2) (hCB2R [2]): 15 022

CCOC(=O)CCCn1c(=O)c(C(=O)NC2CCC(C)CC2)cc2cccnc21 (centres unmarked) [Compound 9, Ethyl 4-(3-(4-Methylcyclohexylcarbamoyl)-2-oxo-1,8-naphthyridin-1(2H)-yl)butanoate]
Ki(CB1)/Ki(CB2) (hCB2R [2]): >160

COC(=O)CCCCn1c(=O)c(C(=O)NC2CCC(C)CC2)cc2cccnc21 (centres unmarked) [Compound 10, Methyl 5-(3-(4-Methylcyclohexylcarbamoyl)-2-oxo-1,8-naphthyridin-1(2H)-yl)pentanoate]
Ki(CB1)/Ki(CB2) (hCB2R [2]): >369

CC1CCC(NC(=O)c2cc3cc(Br)cnc3n(CCN3CCOCC3)c2=O)CC1 (centres unmarked) [Compound 18, 6-Bromo-N-(4-methylcyclohexyl)-1-(2-morpholinoethyl)-2-oxo-1,2-dihydro-1,8-naphthyridine-3-carboxamide]
functional activity at CB2R (h-CB2R): inverse agonists as well as antagonists
cAMP (CB2R) EC50/IC50 (nM): IC50 (hCB2R [1]; antagonist mode, inhibition of response to WIN-55,212-2 (30 nM) with forskolin): 59.6 nM

CC1CCC(NC(=O)c2cc3cccnc3n(CCCCO)c2=O)CC1 (centres unmarked) [Compound 5, 1-(4-Hydroxybutyl)-N-(4-methylcyclohexyl)-2-oxo-1,2-dihydro-1,8-naphthyridine-3-carboxamide]
functional activity at CB2R (h-CB2R): agonists
solubility under the test conditions [3]: insoluble
Ki(CB1)/Ki(CB2) (hCB2R [2]): >187

C[C@H]1CC[C@H](NC(=O)c2cc3cc(-c4ccco4)cnc3n(Cc3ccc(F)cc3)c2=O)CC1 [Compound 22-trans, trans-1-(4-Fluorobenzyl)-6-(furan-2-yl)-N-(4-methylcyclohexyl)-2-oxo-1,2-dihydro-1,8-naphthyridine-3-carboxamide]
Ki(CB1)/Ki(CB2) (hCB2R [2]): >106

CC1CCC(NC(=O)c2cc3cc(-c4ccc(F)cc4)cnc3n(Cc3ccc(F)cc3)c2=O)CC1 (centres unmarked) [Compound 21, 1-(4-Fluorobenzyl)-6-(4-fluorophenyl)-N-(4-methyl-cyclohexyl)-2-oxo-1,2-dihydro-1,8-naphthyridine-3-carboxamide]
Ki(CB1)/Ki(CB2) (hCB2R [2]): >4608

CC1CCC(NC(=O)c2cc3cccnc3n(CCCC(=O)O)c2=O)CC1 (centres unmarked) [Compound 12, 4-(3-(4-Methylcyclohexylcarbamoyl)-2-oxo-1,8-naphthyridin-1(2H)-yl)butanoic Acid]
Ki(CB1)/Ki(CB2) (hCB2R [2]): >4

CC1CCC(NC(=O)c2cc3cccnc3n(CCCCF)c2=O)CC1 (centres unmarked) [Compound 14, 1-(4-Fluorobutyl)-1,2-dihydro-N-(4-methylcyclohexyl)-2-oxo-1,8-naphthyridine-3-carboxamide]
functional activity at CB2R (h-CB2R): agonists
cAMP (CB2R) EC50/IC50 (nM): EC50 (hCB2R [1]): 20.6 nM

COc1ccc(-c2cnc3c(c2)cc(C(=O)NC2CCC(C)CC2)c(=O)n3CCN2CCOCC2)cc1 (centres unmarked) [Compound 23, 6-(4-Methoxyphenyl)-N-(4-methylcyclohexyl)-1-(2-morpholinoethyl)-2-oxo-1,2-dihydro-1,8-naphthyridine-3-carboxamide]
functional activity at CB2R (h-CB2R): inverse agonists as well as antagonists
solubility under the test conditions [3]: insoluble
Ki(CB1)/Ki(CB2) (hCB2R [2]): >6802

CC1CCC(NC(=O)c2cc3cccnc3n(CCCCCCO)c2=O)CC1 (centres unmarked) [Compound 7, 1-(6-Hydroxyhexyl)-N-(4-methylcyclohexyl)-2-oxo-1,2-dihydro-1,8-naphthyridine-3-carboxamide]
Ki(CB1)/Ki(CB2) (hCB2R [2]): >554
